According to publication PMC10180065, “Mechanistic Studies of Arene–Ruthenium(II) Complexes with Carbothioamidopyrazoles as Alternative Cancer Drugs” (Molecules, 2023):
Where two headings read alike, the source gives them in different places.

How the values were obtained:
[1] = system: NALM6; assay: MTT cytotoxicity, NALM6; format: cell-based, human; conditions: read-out: Cytotoxic effect, IC50
Experimental: (§1) Cytotoxicity was evaluated against fifteen adherent human cancer cell lines using the MTT test: colorectal adenocarcinoma cells Caco2 (ATCC® HTB-37™), colorectal adenocarcinoma cells HT29 (ATCC® HTB-38™), colon colorectal carcinoma HCT116 (ATCC® CCL-247™), colon adenocarcinoma COLO205 (ATCC® CCL-222™), colorectal adenocarcinoma SW620 (ATCC® CCL-227™), colorectal adenocarcinoma grade IV LoVo (ATCC® CCL-229™), hepatocellular carcinoma Hep 3b (ATCC® HB-8064™), endometrium adenocarcinoma HEC1A (ATCC® HTB-112™), Ishikawa (99040201; Sigma–Aldrich Sigma, St. Louis, MO, USA), cervical adenocarcinoma cells HeLa (ATCC® CCL-2™), lung epithelial carcinoma A549 (ATCC® CRM-CCL-185™), breast epithelial adenocarcinoma cell positive for estrogen and progesterone receptors MCF7 (ATCC® HTB-22™) and negative for expression of estrogen receptor HCC38 (ATCC® CRL-2314™), acute promyelocytic leukemia HL-60 (ATCC® CCL-240™), skin melanoma WM115 (ATCC® CRL-1676™), and 1 suspension cancer cell line: acute lymphoblastic leukemia NALM6 (purchased from the German Collection of Microorganisms and Cell Cultures). HT29, NALM6, HCC-38 and HL-60 cells were cultured in RPMI 1640 medium (Thermo Fisher Scientific, Waltham, MA, USA) supplemented with 10% fetal bovine serum and antibiotic (gentamicin 25 μg ml^−1) (Gibco, Grand Island, New York, NY, USA). For the remaining tumor cell lines, Dulbecco’s minimal essential medium (DMEM, Lonza, Visp, Switzerland) supplemented with 10% fetal bovine serum and antibiotic instead of RPMI 1640 was used. In addition, Human Microvascular Endothelial Cells (HMEC1), which were obtained from the American Type Culture Collection (Manassas, VA, USA), were used as a model of normal cells. HMEC-1 were cultured in MCDB131 medium (Corning Life Sciences, Corning, NY, USA), supplemented with 10% fetal bovine serum, 10 ng/mL Epidermal Growth Factor (Millipore, Burlington, MA, USA) and 10 mM glutamine (Corning Life Sciences). All cells were grown at 37 °C in humidified atmosphere of 5% CO2 in air. The exponential growth of cells was maintained by regular passaging at 90% confluence three times a week using 0.025% trypsin/EDTA (Gibco, Grand Island, New York, NY, USA).
(§2) The cytotoxicity was tested by a standard MTT [3-(4,5-dimethylthiazol-2-yl)-2,5-diphenyltetrazolium bromide] (Sigma, St. Louis, MO, USA) microplate cell viability assay. The anticancer activity of the investigated compounds was evaluated in vitro on the basis of their ability to inhibit the proliferation of various cancer cells. Exponentially growing cells were seeded a day before the experiment into a 96-well microplate (Nunc, Roskilde, Denmark) at a density up to 6–8 × 10^3 cells/mL (depending on the cell line) and exposed to the test compounds at a wide range of concentrations for 48 h. Subsequently, various concentrations of the studied compounds (10^−7–10^−5 M) freshly prepared in DMSO (final concentration of <0.1% DMSO) and diluted with complete culture medium were added. After 48 h incubation, the cells were immediately subjected to a cell viability assay. At this time point, the number of viable cells in each well was estimated by the MTT test. Briefly, 50 µL (5 mg/mL final concentration) of MTT was added to each microplate well. This procedure was then followed by a three- to four-hour incubation at 37 °C. After incubation, MTT solution was replaced with 100 µL DMSO/well, which solubilized the formazan crystals formed by the dehydrogenases of metabolically active cells. Purple formazan absorbance was measured spectrophotometrically at 570 nm.

[2] = system: Hela; assay: MTT cytotoxicity, Hela; format: cell-based, human; conditions: 48 h incubation, read-out: Cytotoxic effect, IC50
Experimental: as §1, §2

[3] = system: HL60; assay: MTT cytotoxicity, HL60; format: cell-based, human; conditions: read-out: Cytotoxic effect, IC50
Experimental: as §1, §2

[4] = system: MCF7; assay: MTT cytotoxicity, MCF7; format: cell-based, human; conditions: 48 h incubation, read-out: Cytotoxic effect, IC50
Experimental: as §1, §2

[5] = system: A549; assay: MTT cytotoxicity, A549; format: cell-based, human; conditions: 48 h incubation, read-out: Cytotoxic effect, IC50
Experimental: as §1, §2

[6] = system: SW620; assay: MTT cytotoxicity, SW620; format: cell-based, human; conditions: read-out: Cytotoxic effect, IC50
Experimental: as §1, §2

[7] = system: Caco2; assay: MTT cytotoxicity, Caco2; format: cell-based, human; conditions: read-out: Cytotoxic effect, IC50
Experimental: as §1, §2

[8] = system: HT29; assay: MTT cytotoxicity, HT29; format: cell-based, human; conditions: read-out: Cytotoxic effect, IC50
Experimental: as §1, §2

[9] = system: Colo205; assay: MTT cytotoxicity, Colo205; format: cell-based, human; conditions: read-out: Cytotoxic effect, IC50
Experimental: as §1, §2

[10] = system: Hep 3b; assay: MTT cytotoxicity, Hep 3b; format: cell-based, human; conditions: 48 h incubation, read-out: Cytotoxic effect, IC50
Experimental: as §1, §2

[11] = system: Ishikawa; assay: MTT cytotoxicity, Ishikawa; format: cell-based, human; conditions: 48 h incubation, read-out: Cytotoxic effect, IC50
Experimental: as §1, §2

[12] = system: HCC38; assay: MTT cytotoxicity, HCC38; format: cell-based, human; conditions: 48 h incubation, read-out: Cytotoxic effect, IC50
Experimental: as §1, §2

[13] = Lipophilicity by RP-TLC; format: physicochemical; design: key: RM = log(1/Rf − 1), Rf = a/b; conditions: eluent AcCN: H2O at 30–70% v/v, 22 °C
Experimental: All the experimental solutions of standard substances (0.1 mg/mL) were prepared by dissolving ligands (1a–1d) or ruthenium complexes (2a/3a–2d/3d) in ethanol. Commercially-available octadecyl-modified silica aluminum sheets (20 × 20 cm) were cut into 5 × 10 cm plates. The plates were manually spotted with 1.0 μL of freshly prepared solutions using automatic pipets, 5 mm from each edge. The chromatograms for all compounds (1a/2a/3a–1d/2d/3d) were developed using a horizontal developing chamber and the solvent migration distance was about 4.5 cm. The plates were visually inspected under UV light at 254 nm. Each zone was clearly marked and its distance was manually measured. The RP-TLC analyses of lipophilicity were performed at ambient temperature (22 °C). In this experiment, all measurements were performed in triplicate and the obtained results were used in further calculations. The acetonitrile and water mixtures for ligands 1a–1d and arene–ruthenium(II) complexes 2a/3a–2d/3d were used as mobile phases, with […] content increasing in the range of 30–70% v/v, at 5% intervals. Values of the chromatographic retention coefficient Rf (as shown Formula (1)) and RM (as shown Formula (2)), based on received chromatograms, were calculated and converted as follows:(1) Rf=a/b (2) RM=log1/Rf−1

[14] = system: LoVo; assay: MTT cytotoxicity, LoVo; format: cell-based, human; conditions: 48 h incubation, read-out: Cytotoxic effect, IC50
Experimental: as §1, §2

[15] = system: human microvascular endothelial cell line HMEC1; assay: MTT cytotoxicity, normal endothelial cells HMEC1; format: cell-based
Experimental: as §1, §2

[16] = system: HEC1A; assay: MTT cytotoxicity, HEC1A; format: cell-based, human; conditions: 48 h incubation, read-out: Cytotoxic effect, IC50
Experimental: as §1, §2

[17] = system: WM115; assay: MTT cytotoxicity, WM115; format: cell-based, human; conditions: read-out: Cytotoxic effect, IC50
Experimental: as §1, §2

[18] = Homo sapiens, NALM-6, 48 h incubation
[19] = Homo sapiens, HL-60, 48 h incubation
[20] = Homo sapiens, SW-620, 48 h incubation
[21] = Homo sapiens, Caco-2, 48 h incubation
[22] = Homo sapiens, HT-29, 48 h incubation
[23] = Homo sapiens, COLO 205, 48 h incubation
[24] = Homo sapiens, WM-115, 48 h incubation

Lipophilicity, RM [13] | SMILES | IC50 ([1]; 48 h incubation) [µM] | IC50 [2] [µM] | IC50 ([3]; 48 h incubation) [µM] | IC50 [4] [µM] | IC50 [5] [µM] | IC50 ([6]; 48 h incubation) [µM] | IC50 ([7]; 48 h incubation) [µM] | IC50 ([8]; 48 h incubation) [µM] | IC50 ([9]; 48 h incubation) [µM] | IC50 [10] [µM] | IC50 [11] [µM] | IC50 [12] [µM] | IC50 [14] [µM] | IC50 [16] [µM] | IC50 ([17]; 48 h incubation) [µM] | IC50 [1, 18] [µM] | IC50 ([2]; Homo sapiens) [µM] | IC50 [3, 19] [µM] | IC50 ([4]; Homo sapiens) [µM] | further results
2.59 | CCc1cc(CC)n(C(N)=S)n1.Cc1ccc(C(C)C)cc1.[Cl-].[Cl][Ru+] [2b] | 40 ± 5.6 | 164 ± 8.5 | 80.8 ± 3.9 | 82.7 ± 3 | > 200 | 107 ± 3.4 | > 200 | 107 ± 5.9 | 115 ± 4.1 | > 200 | 51.4 ± 1.9 | 63.7 ± 4.4 | 59.7 ± 3.2 | 36.4 ± 1.7 | 54.9 ± 5.9 | – | – | – | – | IC50 ([15]; HMEC1 normal endothelial cells, 48 h incubation, read-out: Cytotoxic effect, IC50): 125 ± 2.1 µM; IC50 for HMEC-1 higher than for cancer cells (selectivity) ([15]; HMEC-1 vs cancer cells): 3–5 times
1.29 | Cc1cc(O)n(C(N)=S)n1 [1d] | – | – | – | – | – | – | – | – | – | – | – | – | – | – | – | > 200 | > 200 | > 200 | > 200 | IC50 ([5]; Homo sapiens): > 200 µM; IC50 [6, 20]: > 200 µM; IC50 [7, 21]: > 200 µM; IC50 [8, 22]: > 200 µM; IC50 [9, 23]: > 200 µM; IC50 ([10]; Homo sapiens, Hep3B): > 200 µM; IC50 ([11]; Homo sapiens): > 200 µM; IC50 ([12]; Homo sapiens): > 200 µM; IC50 ([14]; Homo sapiens): > 200 µM; IC50 ([16]; Homo sapiens, HEC-1-A): 99.1 ± 5.7 µM; IC50 [17, 24]: 90.9 ± 10.2 µM
2.04 | NC(=S)n1nc(-c2ccccc2)cc1O [1c] | – | – | – | – | – | – | – | – | – | – | – | – | – | – | – | 152 ± 26.7 | > 200 | > 200 | > 200 | IC50 ([5]; Homo sapiens): > 200 µM; IC50 [6, 20]: > 200 µM; IC50 [7, 21]: > 200 µM; IC50 [8, 22]: > 200 µM; IC50 [9, 23]: > 200 µM; IC50 ([10]; Homo sapiens, Hep3B): > 200 µM; IC50 ([11]; Homo sapiens): 94 ± 2.4 µM; IC50 ([12]; Homo sapiens): > 200 µM; IC50 ([14]; Homo sapiens): > 200 µM; IC50 ([16]; Homo sapiens, HEC-1-A): 110 ± 8.9 µM; IC50 [17, 24]: > 200 µM
– | Cc1ccc(C(C)C)cc1.Cc1ccc(C(C)C)cc1.[Cl][Ru][Cl].[Cl][Ru][Cl] [compound 4, dichloro(p-cymene)ruthenium(II), reference compound] | > 200 | > 200 | > 200 | > 200 | > 200 | > 200 | > 200 | > 200 | > 200 | 167 ± 6.8 | 120 ± 7.2 | > 200 | 168 ± 7 | 108 ± 3.4 | > 200 | – | – | – | – | –
